The source of these data is the RepoRT retention time repository.

A short description of the series: Agilent ZORBAX 300 SB-C18, 150 × 1 mm, 3.5 µm; A: water + 0.01% heptafluorobutyric acid; B: acetonitrile + 0.01% heptafluorobutyric acid; gradient (min/%B) 0/0 100/90. Particulars: stereoisomer not certain.
For the compound `Cc1ccc2ccc[n+](C)c2c1`, the LC retention time is 7.88 min.
As for `CCNC(=O)CC(=O)NCC`, the LC retention time is 5.95 min.
Under `O=C(C1c2ccccc2Oc2ccccc21)N1CCCc2ccccc21` stands 17.8 min; under `CC(N)Cc1ccc2oc3ccccc3c2c1` (stereo not given), 10.1 min.
Under `CCN(CC)c1ccc(C(=O)NC(c2ccccc2)c2ccccc2)cc1` stands 15.8 min; under `C[N+](C)(C)CC(=O)O`, 1.67 min; under `C=CCN1CCC23CCCCC2C1Cc1ccc(O)cc13` (stereo not given), 9.82 min.
Under `O=C(C=Cc1ccco1)c1ccccc1` stands 14.5 min; under `O=C1c2ccccc2C(=O)c2cc(C(=O)N3CCC(c4ccccc4)CC3)ccc21`, 17 min.
As to `Cc1ccc2c(c1)C1CN(C)CCC1N2C(=O)CN1CCCCC1` (stereo not given), the LC retention time is 7.91 min.
For the compound `CCn1cc(-c2ccn[nH]2)cn1`, the LC retention time came to 7.93 min.
Under `CCCN` stands 4.83 min.
With `COc1ccc(N2CC(C(=O)N3CCC(Cc4ccccc4)CC3)CC2=O)cc1` (stereo not given) the figure was 14.5 min; with `CCC(C)c1ccccc1NC(=S)Nc1cccnc1` (stereo not given), 11 min.
Under `Cc1cc(C)c(-c2csc(N)n2)c(C)c1` stands 8.82 min; under `Cc1cccc(C(=O)NNC(=O)c2ccccc2C(=O)c2ccccc2)c1`, 13.3 min; under `Cc1[nH]c2c(C)ccc(C)c2c1CCN`, 9.21 min.
Take `Nc1c(S(=O)(=O)O)[nH]c(=O)[nH]c1=O`: the LC retention time stood at 1.22 min.
Under `CCOC(=O)C(C(C)=NNC(=O)c1ccc(NC(C)=O)cc1)C(C)C` (stereo not given) stands 10.8 min; under `O=c1c(C=NCc2ccco2)c(NCc2ccco2)nc2ccccn12`, 11.2 min.
With `NCCCSc1ccccc1` the figure was 8.67 min; with `c1cnccn1`, 5.91 min.
With `NC(=O)NCc1ccccn1` the figure was 3.95 min; with `O=C(O)c1n[nH]c(=O)[nH]1`, 1.25 min; with `COC(=O)C(N)CO` (stereo not given), 4 min.
Take `O=C1CC(N2CCN(C3CC(=O)N(CCc4ccccc4)C3=O)CC2)C(=O)N1CCc1ccccc1` (stereo not given): the LC retention time is 12.4 min.
Under `Cc1ccc(CSc2ncccn2)c(CSc2ncccn2)c1C` stands 16 min; under `CCCCC[N+]1(C)CCCC1`, 7.4 min; under `O=C(c1ccccc1O)N1CCCC1`, 9.29 min.
With `CCN1CN(Cc2ccccc2)CNC1=S` the figure was 10.8 min.
With `CC(C)(C)c1ccc(C(CC(=O)O)NC(=O)c2ccccc2)cc1` (stereo not given) the figure was 13.7 min; with `CCOC(=O)c1[nH]c(C)c(C(=O)OCc2ccccc2)c1C`, 15.8 min; with `Cc1ccnc(C)c1`, 6.8 min.
As to `NC(=O)CCN1CCNCC1`, the LC retention time was 6.16 min.
With `CC(=O)Oc1ccc2cccc(N(C(C)=O)C(C)=O)c2c1` the figure was 12 min; with `CC(C(=O)O)n1cccc1` (stereo not given), 8.41 min; with `CNCCc1ccncc1`, 6.72 min.
With `COc1ccc(C(=O)C=Cc2ccccc2)cc1` the figure was 15.7 min.
With `NC(Cc1ccccc1)C(=O)Nc1ccc2ccccc2c1` (stereo not given) the figure was 10.4 min; with `O=C(O)C1CCCN1Cc1ccccc1` (stereo not given), 6.6 min; with `Cc1cc(=O)[nH]c(C(C)C)n1`, 6.9 min.
Consider `Cc1ncc[nH]1`, for which the LC retention time was 4.53 min.
With `O=C(CNc1ccc2ccccc2c1)NN=Cc1ccccc1` the figure was 14.8 min.
Under `CN(C)c1cccc(C(=O)O)c1` stands 8.69 min; under `Nc1ccncn1`, 3.44 min.
As to `Nc1ncnc(N)n1`, the LC retention time amounted to 7.16 min.
Under `Cc1ccc(-c2csc(-c3cccnc3)n2)cc1C` stands 11.3 min.
With `CC(=O)Nc1ccc(O)c(NC(C)=O)c1` the figure was 6.39 min; with `CCC(C)C(NC(C)=O)C(=O)O` (stereo not given), 7.75 min.
With `CC(=Nc1ccc(N=Nc2ccccc2)cc1)N(C)C` the figure was 10.9 min; with `O=C(NCc1ccc(-n2cccc2)cc1)C(c1ccccc1)c1ccccc1`, 16.6 min.
`CC(C)(C)NCC(O)c1ccc(O)c(CO)c1` (stereo not given): the LC retention time is 7.63 min.
Under `Cn1c(=O)[nH]c(=O)n(C)c1=O` stands 5.9 min.
Under `CCc1ccc(C=NNC(=O)C[n+]2ccccc2)cc1` stands 9.72 min; under `CN(C)c1ccccn1`, 6.81 min.
Under `Cc1nn(CC(=O)NCCO)c(=O)c2ccccc12` stands 7.72 min.
As for `O=C(NCCc1c[nH]c2ccccc12)c1c[nH]c2ccccc12`, the LC retention time is 11.8 min.
With `Cc1cc(C)c2c(=O)n(CC(=O)NC(C)CCc3ccccc3)c(=O)n(C)c2n1` (stereo not given) the figure was 14.9 min.
Regarding `c1ccc(-n2c3c(c4ccccc42)CCC3)cc1`, the LC retention time was determined as 20.1 min.
With `Cc1ccc(C)n1-c1ccc(C(=O)O)cc1` the figure was 13 min; with `Nc1cccc(CCC(=O)O)c1`, 7.06 min.
With `OCC1CC(O)CN1` (stereo not given) the figure was 2.85 min.
With `Cc1cnc2c(ccc3c(C)c(C)cnc32)c1C` the figure was 9.85 min; with `COc1cccc(C2C3=C(CC(C)(C)CC3=O)OC3=C2C(=O)CC(C)(C)C3)c1OC`, 16.5 min.
Take `C=CC1CN2CCC1CC2C(O)c1ccnc2ccc(OC)cc12` (stereo not given): the LC retention time came to 9.1 min.
Under `c1coc(CN2CCNCC2)c1` stands 7.3 min; under `S=c1[nH]ccc2ccccc12`, 9.61 min; under `Cc1cc(C)c2c(=O)n(CC(=O)NCCCc3ccccc3)c(=O)n(C)c2n1`, 14.1 min.
With `CN1N=C(C(=O)O)CCC1=O` the figure was 3.29 min; with `Cc1cc(N)cc(C)c1O`, 6.91 min.
Under `O=C1OC(c2c[nH]c3ccccc23)c2ccccc21` (stereo not given) stands 12.4 min.
For `CC(=O)C(C)(C)N`, the LC retention time was 5.58 min.
Under `CCCc1ccc(O)c(N)c1` stands 8.64 min.
With `NC(=O)C1(N2CCCCC2)CCN(C(=O)C2CCCCC2)CC1` the figure was 8.4 min; with `CCOC(=O)C(Cc1ccc(NC(=O)c2ccccc2)cc1)N1C(=O)c2ccccc2C1=O` (stereo not given), 15.2 min.
Under `O=C(O)c1ccccc1CN1CCCC1` stands 7.5 min; under `Cc1cccc(N)c1C`, 8.05 min.
Regarding `CC(NC(=O)c1ccc(CN2CCc3ccccc3C2)cc1)c1ccccc1` (stereo not given), the LC retention time was determined as 10.5 min.
As to `CCCCN(C)C(=O)Cn1c(=O)c2c(C)cc(C)nc2n(-c2ccccc2)c1=O`, the LC retention time was 15 min.
With `Cc1ccccc1-n1nnnc1-c1ccc(-c2nnnn2-c2ccccc2C)cc1` the figure was 15.3 min; with `O=c1oc2ccccc2c2nc(-c3ccncc3)ncc12`, 12.2 min; with `CC(=O)Oc1cccc(C(=O)NN2C(=O)c3ccccc3C2=O)c1`, 11.1 min.
Under `Cc1ccc(C)n1-c1ccccc1C(=O)O` stands 12.1 min; under `CCCCN1CNC(=S)N(CCc2ccccc2)C1`, 13.8 min.
`NC(=O)C1(N2CCCCC2)CCN(C(=O)c2ccccc2)CC1`: the LC retention time came out at 7.76 min.
Under `NCCOc1ccc2ccccc2c1` stands 9.22 min; under `CCC(=O)Nc1ccc(Oc2ccc(NC(=O)CC)c(NC(=O)CC)c2)cc1`, 10.5 min; under `CCNC(=S)Nc1ccccc1N`, 8.14 min.
Under `Cc1ccc(C(=O)NCCn2cccc2)cc1` stands 11.9 min; under `Cc1ccc2[nH]cc(C=O)c2c1`, 9.98 min.
With `NCCCCCCCCCCCCN` the figure was 8.26 min; with `CC(C)Nc1ccccc1`, 8.04 min.
On to `Cc1ccc(C)n1-c1ccccc1CO`, for which the LC retention time was 12.7 min.
Under `O=C1c2ccccc2C(O)(c2ccccc2)N1C(c1ccccc1)c1ccccc1` (stereo not given) stands 16.8 min.
With `Cc1cc(C)nc(C)c1` the figure was 7.46 min; with `COc1cccc(C2CC(=O)Nc3cc4c(cc32)OCO4)c1OC` (stereo not given), 12 min; with `CC(C)c1ncc[nH]1`, 6.64 min.
Under `CC(C)(C)C1=CC(=O)CN(C(C)(C)C)C1` stands 8.19 min; under `O=C1CNCC(=O)N1CCc1ccccc1`, 9.32 min; under `COc1ccc2c3c1OC1C(=O)CCC4(O)C(C2)N(C)CCC314` (stereo not given), 8.39 min.
Regarding `S=C(Nc1cccnc1)N1CCc2ccccc21`, the LC retention time was 9.72 min.
With `Cc1cc(C=O)c(C)n1C(C)C` the figure was 11.1 min.
Under `COc1ccc(Cc2c(O)n(C)c(=O)n(C)c2=O)c(OC)c1OC` stands 11.2 min; under `Cc1cc(C)c2c(CC(=O)NN(C)C)coc2c1`, 10.9 min.
With `NC(N)=NC(CC(=O)O)C(=O)O` (stereo not given), the LC retention time turned out to be 2.11 min.
With `Cc1cccc(C)c1NC1=NCCCS1` the figure was 9.58 min; with `Cc1cccc(C(=O)N2CCc3c([nH]c4ccccc34)C2c2ccccc2)c1` (stereo not given), 17.8 min; with `CNc1ccccc1C`, 8.19 min.
Under `COc1ccc(OC)c(NC(=O)Cn2c(=O)n(C)c(=O)n(C)c2=O)c1` stands 10.7 min; under `Cn1c(=O)cc(O)c2ccccc21`, 9.12 min.
